Experimental data as given in patent US8680058B2, “Selectively targeted antimicrobial peptides and the use thereof” (priority 2006, dated 2014).
Converted amounts (≈) assume the structure as drawn. Non-standard residues stand in square brackets, D forms with d. Residues, ends and D or L forms follow the SMILES beside them. No end group written: not given here.

Columns and labels:
P. aeruginosa ATCC 15692 [1] = experiment: Killing of exogenous P. aeruginosa in pooled CF sputum; type: cell-based, Pseudomonas aeruginosa
Procedure: 3.2 Activity and stability of G10KHc and G10KHc-D in sputum. Determination of peptide antimicrobial effects or activity in sputum was investigated in a similar manner to previous reports (Sajjan et al., 2001). To assay the activity of G10KHc and G10KHc-D against exogenous P. aeruginosa in sputum, collected sputum samples were diluted 1:10 in 10 mM PBS (PBS) and pooled (referred to as pooled sputum). In 100 μL pooled sputum, ATCC 15692 was added to a final concentration of ˜5×10^6 cfu/mL prior to 25 μM peptide addition.
In samples examining the effect of protease inhibitors on peptide activity, pooled sputum samples were pre-treated for 30 min with 1 mM protease inhibitor, either phenylmethylsulphonylfluoride (PMSF), beta-mercaptoethanol (BME), or ethylenediaminetetraacetic acid (EDTA), (all acquired from Sigma-Aldrich), followed by addition of 25 μM G10KHc and ATCC 15692 (˜5×10^6 cfu/mL).
Bacteria surviving peptide treatment were rescued by dilution (1:50) in growth media at 4 h and kept on ice before appropriate dilution and plating on LB agar supplemented with ampicillin (25 μg/mL). After overnight incubation at 37° C., colonies were counted and the surviving cfu/mL quantitated. 100 cfu/mL was considered as the countable limit for all plating procedures. […]

P. aeruginosa ATCC 15692 [2] = experiment: Effect of rhDNase on STAMP killing in concentrated sputum; type: cell-based, Pseudomonas aeruginosa
Procedure: 3.4 Effect of rhDNase on STAMP activity in sputum. Recombinant human DNase, which is commonly used during treatment of CF to reduce sputum viscosity and promote airway clearing (Fuchs et al., 1994), was added to pooled, concentrated sputum samples to determine if G10KHc/PMSF and G10KHc-D activity could be improved during co-treatment under these conditions. To determine the effect of rhDNase (Genentech, San Francisco, Calif.) on STAMP killing ability, individual sputum samples were diluted 1:2 in 100 μg/mL rhDNase, briefly vortexed, and incubated at room temperature for 10 min. Treated samples were then pooled, followed by 1 mM PMSF addition, where appropriate, and incubation for 1 h. 25 μM G10KHc or G10KHc-D was then added with ˜5×10^6 cfu/mL ATCC 15692 and incubated 4 h. Survivors were then rescued and quantitated by plating as described above.

P. aeruginosa ATCC 15692 [3] = experiment: Time-kill against high-density planktonic P. aeruginosa; type: cell-based, Pseudomonas aeruginosa
Procedure: For evaluation of enhanced activity between G10KHc and tobramycin against high density planktonic cultures, ATCC 15692 were grown overnight were adjusted to ˜1×10^8 cfu/mL in ddH2O (pH 7.4) and exposed to 5 μM tobramycin, 5 μM G10KHc or a combination of both agents (a combination of 5 μM tobramycin (2.34 μg/mL) and 5 μM G10KHc or G10). 10 μL of the treated cultures was rescued by dilution after 24 h and the surviving cfu/mL plated on LB and counted after growth on LB agar.

P. aeruginosa biofilms = experiment: Rotating-disk biofilm reactor, P. aeruginosa biofilm killing; type: cell-based, Pseudomonas aeruginosa; conditions: 100 μg/mL alone, 4 h or 24 h
Procedure: In this experiment, a rotating-disk biofilm reactor system was used for generating quantitative data on biofilm susceptibility to tobramycin, G10 and G10KHc. The system consisted of a reactor vessel containing 250 mL of diluted trypticase-soy broth (TSB) (1:100) medium. Reactors were inoculated with overnight cultures (1%, v/v). After static overnight growth in TSB, a flow of fresh medium was initiated (dilution rate, 0.7 h^−1). After 24 h in a flow of medium, the polycarbonate chips with attached biofilm bacteria were aseptically removed from the spinning disk and washed three times in ddH2O (pH 7.4) and incubated in 1 mL ddH2O. G10 (100 μg/mL), G10KHc (100 μg/mL), tobramycin (100 μg/mL), or a combination of the two was added as indicated. The chips were then incubated for 4 or 24 h in 24-well tissue culture plates (Falcon no. 353047; Becton Dickinson Labware, Franklin Lakes, N.J.). To estimate the number of viable P. aeruginosa remaining, the disks were placed in 1 mL PBS and the cells were dispersed using a tissue homogenizer (Brinkmann Instruments, Westbury, N.Y.) and the total cfu per chip was determined by serial dilution and plating on LB agar.

P. aeruginosa = experiment: microbe, parasite or virus in culture; type: cell-based, Pseudomonas aeruginosa; conditions: for MIC: Pseudomonas aeruginosa
Procedure: 2.3 Antimicrobial Activities. The general antimicrobial activities of G10KHc, G10, and tobramycin against clinical isolates of P. aeruginosa were evaluated by minimum inhibitory concentration (MIC) assay as previously described (Eckert et al., 2006) and shown in Table 5. MICs are reported in μM, though for familiarity, 1 μM tobramycin=0.468 μg/mL. P. aeruginosa were grown to log phase and adjusted to ˜1×10^5 cfu/mL in Mueller-Hinton (MH) broth and added to 96-well plates. Two-fold serial dilutions of peptide were then added to bacteria and the plates incubated for 18-24 hours at 37° C. MIC was determined as the concentration of peptide present in the last clear well (no growth). […] In contrast to tobramycin, G10KHc was also effective against aminoglycoside and multiple-antibiotic resistant P. aeruginosa isolated from CF patients (AGR10, MR15). Additionally, as mucoid P. aeruginosa are often associated with reduced susceptibility to antimicrobial agents, we were encouraged to find that G10KHc was active against one such strain, PDO300.

P. aeruginosa ATCC 15692 [4] = experiment: Time-kill (killing kinetics), P. aeruginosa in LB with 30% mouse serum; type: cell-based, Pseudomonas aeruginosa; conditions: 10 μM, 1 min to 2 h
Procedure: Time-Kill (killing kinetics) experiments were performed essentially as described previously (Eckert et al., 2006). Briefly, P. aeruginosa were grown to log phase and diluted to ˜1×10^5 cfu/mL (moderate density planktonic cultures) in LB with 30% mouse serum (MP Biomedicals) prior to the addition of 10 μM tobramycin, G10 or G10KHc to the cell suspensions. At each time point, 10 μL of the culture was removed and P. aeruginosa cells rescued by dilution in 500 μL LB and kept on ice until plating. Surviving cfu/mL were quantitated after plating on LB agar and incubating overnight at 37° C. under aerobic conditions.

S. mutans biofilms = experiment: Binding of fluorescently labeled genome-derived peptides to S. mutans biofilms; parameters: species or system Streptococcus mutans; conditions: fluorescent label
Description: The targeting peptide 1903 was obtained by scanning the genomic sequence of S. mutans UA140. The predicted open reading frames (ORFs) of the publicly-available genome were examined and those ORFs that encoded for proteins under 50 amino acids were noted and re-examined after scanning the entire genome. A number of peptides predicted to be encoded by these ORFs were selected, synthesized with fluorescent labels, tested for binding to S. mutans biofilms.

## O=S(=O)(F)Cc1ccccc1 [PMSF, phenylmethylsulphonylfluoride, reference compound]
P. aeruginosa ATCC 15692 [1]; 1 mM
  effect of inhibitor alone on P. aeruginosa viability: only a small affect on P. aeruginosa viability

## CC[C@@H](C)[C@@H](NC(=O)CNC(=O)[C@@H](CCCCN)NC(=O)[C@@H](CCCNC(=N)N)NC(=O)[C@H](NC(=O)[C@H](NC(=O)[C@@H](CCCNC(=N)N)NC(=O)[C@@H](CCCNC(=N)N)NC(=O)[C@@H](CC(C)C)NC(=O)[C@@H](CC(N)=O)NC(=O)[C@@H](CCCCN)NC(=O)[C@@H](CO)NC(=O)CNC(=O)CNC(=O)[C@@H](CO)NC(=O)CNC(=O)CNC(=O)[C@@H](Cc1c[nH]cn1)NC(=O)[C@@H](CCCCN)NC(=O)[C@@H](CCCNC(=N)N)NC(=O)[C@@H](Cc1c[nH]cn1)NC(=O)[C@@H](CCCCN)NC(=O)[C@@H](CCCNC(=N)N)NC(=O)[C@@H](Cc1c[nH]cn1)NC(=O)[C@@H](CCCCN)NC(=O)[C@@H](CCCNC(=N)N)NC(=O)[C@@H](Cc1c[nH]cn1)NC(=O)[C@@H](CCCCN)NC(=O)[C@H](N)CCCCN)[C@H](C)CC)[C@H](C)CC)C(=O)N[C@H](Cc1c[nH]cn1)C(=O)N[C@@H](C(=O)N[C@@H](C(=O)N[C@H](CCCCN)C(=O)N[C@H](CCCCN)C(=O)N[C@H](Cc1ccc(O)cc1)C(=O)NCC(=O)O)[C@H](C)CC)[C@H](C)CC [Peptide G10KHc-D] (H-[dK][dK][dH][dR][dK][dH][dR][dK][dH][dR][dK][dH]GG[dS]GG[dS][dK][dN][dL][dR][dR][dI][dI][dR][dK]G[dI][dH][dI][dI][dK][dK][dY]G-OH; N-terminus and C-terminus assumed)
P. aeruginosa ATCC 15692 [1]; 25 μM, 4 h, no inhibitor
  reduction of recovered P. aeruginosa compared to untreated samples: 3-4 log10
P. aeruginosa ATCC 15692 [2]; concentrated sputum not treated with rhDNase
  recovered cfu/mL as percent of untreated control: ~30%

## NC[C@H]1O[C@H](O[C@H]2[C@H](O)[C@@H](O[C@H]3O[C@H](CO)[C@@H](O)[C@H](N)[C@H]3O)[C@H](N)C[C@@H]2N)[C@H](N)C[C@@H]1O [tobramycin]
P. aeruginosa ATCC 15692 [3]; 5 μM (2.34 μg/mL), 24 hours, high-density planktonic cells
  improvement in bactericidal effect over 5 μM G10 or G10KHc: 1-2 log10
P. aeruginosa ATCC 15692 [3]; 5 μM each agent, 24 h, 1×10^8 cfu/mL culture
  surviving cfu/mL: 1×10^7 cfu/mL
P. aeruginosa biofilms
  killing effect against P. aeruginosa biofilms: very limited killing effects
P. aeruginosa; ATCC9027, P. aeruginosa ATCC 9027
  MIC: 2.12 µM (≈ 0.991 µg/mL)
P. aeruginosa; ATCC10145, P. aeruginosa ATCC 10145
  MIC: 1.75 µM (≈ 0.818 µg/mL)
P. aeruginosa; ATCC15692, P. aeruginosa ATCC 15692
  MIC: 3.05 µM (≈ 1.43 µg/mL)
P. aeruginosa; ATCC27583, P. aeruginosa ATCC 27583
  MIC: 1.75 µM (≈ 0.818 µg/mL)
P. aeruginosa; P. aeruginosa AGR10 (aminoglycoside resistant, CF isolate)
  MIC: 55 µM (≈ 25.7 µg/mL)
P. aeruginosa; P. aeruginosa MR15 (multiple-antibiotic resistant, CF isolate)
  MIC: 55 µM (≈ 25.7 µg/mL)
P. aeruginosa; P. aeruginosa PAK
  MIC: 2.12 µM (≈ 0.991 µg/mL)
P. aeruginosa; P. aeruginosa S40
  MIC: 0.4 µM (≈ 0.187 µg/mL)
P. aeruginosa; P. aeruginosa S60
  MIC: 0.4 µM (≈ 0.187 µg/mL)
P. aeruginosa; P. aeruginosa S100
  MIC: 3.5 µM (≈ 1.64 µg/mL)
P. aeruginosa; PA14, P. aeruginosa PA14
  MIC: 0.7 µM (≈ 0.327 µg/mL)
P. aeruginosa; PAO1, P. aeruginosa PAO1
  MIC: 2.5 µM (≈ 1.17 µg/mL)

## KNLRRIIRKGIHIIKKYG [novispirin G10, KNLRRIIRKGIHIIKKYG]
P. aeruginosa
  MIC range: 10 to 60 µM
  mean MIC: 23.4 µM
P. aeruginosa ATCC 15692 [4]
  killing kinetics (in words): ineffective

## NIFEYFLE (synthetic targeting peptide 1903)
S. mutans biofilms
  binding to S. mutans: showed the binding activity to S. mutans

B1: rhDNase: Recombinant human DNase (Genentech), sputum mucolytic agent (protein, UniProt P24855 23-282, looked up)
Deoxyribonuclease-1: LKIAAFNIQTFGETKMSNATLVSYIVQILSRYDIALVQEVRDSHLTAVGKLLDNLNQDAPDTYHYVVSEPLGRNSYKERYLFVYRPDQVSAVDSYYYDDGCEPCGNDTFNREPAIVRFFSRFTEVREFAIVPLHAAPGDAVAEIDALYDVYLDVQEKWGLEDVMLMGDFNAGCSYVRPSQWSSIRLWTSPTFQWLIPDSADTTATPTHCAYDRIVVAGMLLRGAVVPDSALPFNFQAAYGLSDQLAQAISDHYPVEVMLK
P. aeruginosa ATCC 15692 [2]; 100 μg/mL rhDNase
  effect of rhDNase treatment alone on P. aeruginosa: not affected
